Columns and labels:
[1] = Biodistribution after 1 hour of postinjection in lungs; format: ADME, organism-based, Lung; settings: in vivo
[2] = Biodistribution after 1 hour of postinjection in blood; format: ADME, organism-based; settings: in vivo
[3] = Biodistribution after 6 hours of postinjection in melanoma/lungs; format: ADME, organism-based, Lung; settings: in vivo
[4] = Biodistribution after 6 hours of postinjection in melanoma; format: ADME, organism-based; settings: in vivo
[5] = Biodistribution after 1 hour of postinjection in melanoma/blood; format: ADME, organism-based; settings: in vivo
[6] = Biodistribution after 1 hour of postinjection in heart; format: ADME, organism-based; settings: in vivo
[7] = Biodistribution after 1 hour of postinjection in spleen; format: ADME, organism-based; settings: in vivo
[8] = Biodistribution after 1 hour of postinjection in melanoma/lungs; format: ADME, organism-based, Lung; settings: in vivo
[9] = Biodistribution after 6 hours of postinjection in spleen; format: ADME, organism-based; settings: in vivo
[10] = Partition coefficient (logD7.4); format: physicochemical; settings: octanol/water, pH 7.4
[11] = Biodistribution after 1 hour of postinjection in brain; format: ADME, organism-based; settings: in vivo
[12] = Biodistribution after 1 hour of postinjection in kidney; format: ADME, organism-based; settings: in vivo
[13] = Biodistribution after 6 hours of postinjection in melanoma/spleen; format: ADME, organism-based; settings: in vivo
[14] = Biodistribution after 6 hours of postinjection in kidney; format: ADME, organism-based; settings: in vivo
[15] = Biodistribution after 6 hours of postinjection in lungs; format: ADME, organism-based, Lung; settings: in vivo
[16] = aqueous ionization constant (pKa) determined by HPLC methods; format: physicochemical; settings: buffer
[17] = Biodistribution after 6 hours of postinjection in brain; format: ADME, organism-based; settings: in vivo
[18] = Partition coefficient of the unprotonated free amine (logP); format: physicochemical; settings: octanol/water
[19] = Biodistribution after 1 hour of postinjection in liver; format: ADME, organism-based; settings: in vivo
[20] = Biodistribution after 1 hour of postinjection in melanoma; format: ADME, organism-based; settings: in vivo
[21] = Biodistribution after 6 hours of postinjection in liver; format: ADME, organism-based; settings: in vivo
[22] = Biodistribution after 6 hours of postinjection in melanoma/blood; format: ADME, organism-based; settings: in vivo
[23] = Biodistribution after 6 hours of postinjection in heart; format: ADME, organism-based; settings: in vivo
[24] = Biodistribution after 1 hour of postinjection in melanoma/spleen; format: ADME, organism-based; settings: in vivo
[25] = Biodistribution after 6 hours of postinjection in blood; format: ADME, organism-based; settings: in vivo
[26] = Biodistribution after 6 hours of postinjection in muscle; format: ADME, organism-based, Muscle tissue; settings: in vivo
[27] = Biodistribution after 1 hour of postinjection in muscle; format: ADME, organism-based, Muscle tissue; settings: in vivo
[28] = Biodistribution after 1 hour of postinjection in melanoma/liver; format: ADME, organism-based; settings: in vivo
[29] = Biodistribution after 6 hours of postinjection in melanoma/liver; format: ADME, organism-based; settings: in vivo

| Substance | ID/g [1] [%] | ID/g [2] [%] | ID/g [4] [%] | ID/g [6] [%] | ID/g [7] [%] | ID/g [9] [%] | logD [10] [pH7.4] | ID/g [11] [%] | ID/g [12] [%] | Ratio [13] | ID/g [14] [%] | ID/g [15] [%] | pKa [16] | logP [18] | ID/g [19] [%] | ID/g [20] [%] | ID/g [21] [%] | Ratio [22] | ID/g [23] [%] | ID/g [25] [%] | also measured |
| --- | --- | --- | --- | --- | --- | --- | --- | --- | --- | --- | --- | --- | --- | --- | --- | --- | --- | --- | --- | --- | --- |
| N-methyl-3-azapentane-1,5-dithiol complex [listing 3 of 6 here] | 3.27 | 1.34 | 3.23 | 1.17 | 3.35 | 1.25 | 1.1 | 0.13 | 15.3 | 2.6 | 11.7 | 2.07 | 9.9 | 3.7 | 35.3 | 3.26 | 17.7 | 2.2 | 0.73 | 1.44 | Ratio [3]: 1.6; Ratio [5]: 2.4; Ratio [8]: 1; Ratio [24]: < 1; Ratio [28]: < 1; ID/g [26]: 0.26%; Ratio [29]: < 1; ID/g [17]: 0.08%; ID/g [27]: 0.53% |
| N-methyl-3-azapentane-1,5-dithiol complex [listing 4 of 6 here] | 2.73 | 2.08 | 3.13 | 1.84 | 3.44 | 0.7 | 0 | 0.18 | 17.9 | 4.5 | 17.9 | 1.96 | 9.7 | 1.7 | 27.3 | 3.23 | 18.7 | 2.3 | 0.84 | 1.35 | Ratio [3]: 1.2; Ratio [5]: 1.6; Ratio [8]: 4.5; ID/g [26]: 0.39%; ID/g [17]: 0.14%; ID/g [27]: 0.57% |
| N-methyl-3-azapentane-1,5-dithiol complex [listing 5 of 6 here] | 5.73 | 3.49 | 2.83 | 1.74 | 2.39 | 1.66 | 1.6 | 0.24 | 13 | 1.7 | 10.1 | 3.4 | 8.3 | 2.7 | 7.11 | 2.55 | 6.1 | 1.4 | 1.15 | 2.05 | Ratio [24]: 1.1; ID/g [27]: 0.78% |
| N-methyl-3-azapentane-1,5-dithiol complex [listing 6 of 6 here] | 13.2 | 3.28 | 1.39 | 2.09 | 6.04 | 1.44 | 0.95 | 0.32 | 24 | < 1 | 12.9 | 5.5 | 9.6 | 3.6 | 16.6 | 2.88 | 7.23 | – | 0.86 | 1.3 | ID/g [17]: 0.13% |

The next lines start with results.

| ID/g [1] [%] | ID/g [2] [%] | ID/g [4] [%] | ID/g [6] [%] | ID/g [7] [%] | ID/g [9] [%] | logD [10] [pH7.4] | ID/g [11] [%] | ID/g [12] [%] | Ratio [13] | ID/g [14] [%] | ID/g [15] [%] | pKa [16] | logP [18] | ID/g [19] [%] | ID/g [20] [%] | ID/g [21] [%] | Ratio [22] | ID/g [23] [%] | ID/g [25] [%] | Substance | also measured |
| --- | --- | --- | --- | --- | --- | --- | --- | --- | --- | --- | --- | --- | --- | --- | --- | --- | --- | --- | --- | --- | --- |
| 5.75 | 2.36 | 1.53 | 1.26 | 5.57 | 2.91 | 1 | 0.64 | 19.4 | 1 | 11.3 | 2.91 | 7.2 | 1.2 | 4.02 | 2.16 | 1.53 | 1.1 | 0.83 | – | N-methyl-3-azapentane-1,5-dithiol complex [listing 1 of 6 here] | Ratio [3]: < 1; Ratio [5]: < 1; Ratio [8]: < 1; ID/g [17]: 0.26% |
| 2.6 | 1.26 | 4.12 | 0.66 | 1.15 | 1.3 | – | 0.08 | 30.4 | 3.2 | 19.3 | 1.35 | – | 3.5 | 43.3 | 4.95 | 23 | 4.2 | 0.46 | 0.98 | N-methyl-3-azapentane-1,5-dithiol complex [listing 2 of 6 here] | Ratio [3]: 3.1; Ratio [5]: 3.9; Ratio [8]: 1.9; Ratio [24]: 4.3; ID/g [26]: 0.2%; ID/g [27]: 0.24% |
